In publication PMC10525890, “Selective Inhibition of Cardiac Late Na^+ Current Is Based on Fast Offset Kinetics of the Inhibitor” (Biomedicines, 2023):
“And” between values parts separate entries of the source, which are not always exact repeats. Identical values can stand only once.

Legend:
late Na+ current (INaL) [1] = assay: INaL dissected by drug under action potential voltage clamp (APVC) in isolated ventricular myocytes; type: cell-based, canine; conditions: cycle length 700 ms, 37 °C, 1 µM GS967, 20 µM mexiletine, 10 µM quinidine, mean ± SEM
Experimental: (§1) Single canine ventricular myocytes were isolated using a segment perfusion technique, as previously described. Briefly, the LAD coronary artery was cannulated and used for supplying solutions required for the dissociation of the individual cells with minimal injury. After dissection, the tissue was first perfused with a nominally Ca^2+-free solution (Minimum Essential Medium Eagle, Joklik Modification, Sigma-Aldrich Co., St. Louis, MO, USA) for 5 min in order to reduce the Ca^2+ load and also to promote the uncoupling of cell-to-cell junctions. Following this, the perfusate was supplemented with 1 mg/mL collagenase (Type II, final activity of 224 U/mL, Worthington Biochemical Co., Lakewood, NJ, USA) and 0.2% bovine serum albumin (Fraction V., Sigma) in the presence of 50 µM Ca^2+. This step was applied for 30 min to digest the collagen fibers in the extracellular matrix, resulting in the release of individual cells. […] The cells were kept at 15 °C before use, allowing normalization of their intracellular ionic composition. All chemicals applied in these experiments were purchased from Sigma-Aldrich Co. (St. Louis, MO, USA).
(§2) The cells, studied by an inverted microscope, were continuously superfused with a modified Tyrode at a rate of 1–2 mL/min. The modified Tyrode solution contained (in mM): NaCl: 121; KCl: 4; CaCl2: 1.3; MgCl2: 1; HEPES: 10; NaHCO3: 25; glucose: 10; pH: 7.35; osmolarity: 300 ± 3 mOsm. The temperature of this perfusate was set to 37 °C with a temperature controller (Cell MicroControls, Norfolk, VA, USA). Electrical signals were generated, amplified and recorded using a MultiClamp 700A or 700B amplifier under the control of pClamp 10 software (Molecular Devices, Sunnyvale, CA, USA) after analogue-to-digital conversion (Digidata 1440A or 1332, Molecular Devices). The electrodes were manufactured from borosilicate glass. The tip resistance of these micropipettes ranged between 2 and 3 MΩ when filled with pipette solution. Ion currents were recorded under whole-cell voltage clamp conditions. The series resistance was typically 4–8 MΩ. The measurement was discarded when the series resistance changed substantially during the experimental period.
APVC experiments were performed according to the methods described previously. This technique allows for the visualization of various ion currents flowing during an actual ventricular AP by using a selective inhibitor of the respective ion current. In these experiments, therefore, a midmyocardial canine ventricular AP was applied as a command signal. The current traces were continuously recorded before and after a 5 min superfusion with the applied Na^+ channel inhibitor. The drug-sensitive current was obtained by subtracting the post-drug trace from the reference pre-drug trace. When measuring INaL, the external solution was supplemented with 1 µM nisoldipine, 1 µM E4031 and 100 µM chromanol 293B, in order to eliminate contaminations by Ca^2+ and K^+ currents. The pipette solution contained (in mM): K-aspartate, 120; KCl, 30; MgATP, 3; HEPES, 10; Na2-phosphocreatine, 3; EGTA, 0.01; cAMP, 0.002; KOH, 10; at pH = 7.3; osmolarity of 285 mOsm. The amplitude of INaL was measured at 50% duration of the APD90 value of the command AP. The initial 20 ms period following the AP upstroke was excluded from evaluation when determining the current integral in order to eliminate the contribution of INaP. A total of 20 consecutive current traces were averaged and analyzed in each experiment to reduce the noise and the trace-to-trace fluctuations of the AP configuration. Ion currents were normalized to cell capacitance, determined by applying a short (15 ms) hyperpolarizing pulse from +10 mV to −10 mV.

late Na+ current (INaL) [2] = assay: INaL under conventional voltage clamp (2 s pulses to −20 mV from −120 mV) in isolated ventricular myocytes; type: cell-based, canine; conditions: for inhibition of INaL current integral: 1 µM GS967, 20 µM mexiletine, 10 µM quinidine; for inhibition of INaL density: at 50 ms, 1 µM GS967 (n = 6), 20 µM mexiletine (n = 5), 10 µM quinidine (n = 6); for INaL current integral (charge carried), post-drug: initial 20 ms excluded, 1 µM GS967 (pre-drug −69.1 ± 7.9), 20 µM mexiletine (pre-drug −68.6 ± 6.2), 10 µM quinidine (pre-drug −68.2 ± 11.7); for INaL density at 50 ms after start of pulse, post-drug: −20 mV from −120 mV, 1 µM GS967 (pre-drug −0.313 ± 0.035), 20 µM mexiletine (pre-drug −0.337 ± 0.035), 10 µM quinidine (pre-drug −0.333 ± 0.043)
Experimental: as §1, §2
Rectangular command pulses were applied in conventional voltage clamp experiments to study the effects on INaL at stable test potentials, as described previously. The cells were perfused with HEPES-buffered Tyrode solution containing (in mM): NaCl, 144; NaH2PO4, 0.4; KCl, 4.0; CaCl2, 1.8; MgSO4, 0.53; glucose, 5.5; HEPES, 5.0; at pH = 7.4. This solution contained 1 µM nisoldipine, 0.5 µM HMR-1556 and 0.1 µM dofetilide in order to block the Ca^2+ and K^+ currents. The pipette solution contained (in mM): CsCl, 125; TEACl, 20; MgATP, 5; EGTA, 10; HEPES, 10; at pH = 7.2. Test pulses of 2 s duration were clamped to −20 mV from the holding potential of −120 mV. The total amount of INaL was determined by pharmacological subtraction using a final superfusion with 20 µM TTX. The amplitude of INaL was determined at 50 ms following the start of the pulse. When measuring the charge carried by INaL (integral), the initial 20 ms of the current was excluded from evaluation to minimize the contamination with INaP.

[3] = test system: peak Na+ current (INaP) estimated as V+max; assay: Steady-state V+max of action potential upstroke (indicator of INaP), right ventricular papillary muscle, sharp microelectrode; type: cell-based, canine; conditions: 1 µM GS967, 20 µM mexiletine, 10 µM quinidine; for V+max block: cycle length 700 ms; for cycle lengths at which V+max was significantly reduced: cycle lengths 0.3-5 s tested
Experimental: (§3) Right ventricular papillary muscles were applied for AP recordings using the conventional sharp microelectrode technique, as described previously. Membrane potential changes were recorded at 37 °C using sharp microelectrodes filled with 3 M KCl (tip resistance 10–20 MΩ) and connected to the input of an amplifier (MDE GmbH, Heidelberg, Germany). The preparations were stimulated with current pulses having durations of 1 ms and amplitudes of 200% diastolic threshold using a pair of platinum electrodes. Before starting the experiment, the preparations were paced at a cycle length of 1 s for at least 60 min allowing equilibration. After this period, the cycle length was sequentially changed between 0.3 and 5 s and the 25th AP was recorded at each cycle length. […] APs were sampled at 100 kHz with an ADA 3300 data acquisition board (Real Time Devices Inc., State Collage, PA, USA) and stored for later analysis.

[4] = test system: peak Na+ current (INaP) estimated as V+max; assay: Offset kinetics: restitution of V+max with extra stimuli after 1 Hz trains; type: cell-based, canine; conditions: monoexponential fit, basic cycle length 1 s; 1 µM GS967, 20 µM mexiletine
Experimental: as §3

[5] = test system: peak Na+ current (INaP) estimated as V+max; assay: Onset kinetics of V+max block during 2.5 Hz train after 1 min rest; type: cell-based, canine; conditions: initial 40 APs, 1 µM GS967, 20 µM mexiletine, 10 µM quinidine
Experimental: as §3
The onset kinetics of drug action on V^+max were determined by stimulating the preparation at a short cycle length of 0.4 s following a 1 min period of rest and the initial 40 APs were recorded. The V^+max values of the consecutive APs were plotted as a function of the number of the AP within the train. The onset rate constant was determined by fitting the consecutive V^+max values to a monoexponential function.

Nav1.8 = conditions: stated in discussion, no reference given; cited from earlier work
Nav2.1 = conditions: stated in discussion, no reference given; cited from earlier work
Nav1.1 = test system: Nav1.1; parameters: method as in PMID 31730442; conditions: cited from earlier work
Nav1.5 = test system: Nav1.5; parameters: method as in PMID 27136942, PMID 32938719; conditions: cited from earlier work
INaL over INaP = conditions: cited from earlier work

Row | Structure (SMILES) | drug-sensitive INaL current density measured at 50% duration of APD90 of the command AP (late Na+ current (INaL) [1]) | drug-sensitive INaL current integral (initial 20 ms excluded) (late Na+ current (INaL) [1]) | inhibition of INaL current integral (late Na+ current (INaL) [2]) | inhibition of INaL density (late Na+ current (INaL) [2]) | INaL current integral (charge carried), post-drug (late Na+ current (INaL) [2]) | INaL density at 50 ms after start of pulse, post-drug (late Na+ current (INaL) [2]) | V+max block [3] | cycle lengths at which V+max was significantly reduced [3] | offset time constant (recovery of V+max) [4] | onset rate constant of V+max block [5] | inhibition of Nav1.8 (Nav1.8) | inhibition of Nav2.1 (Nav2.1) | sensitivity of neuronal Nav1.1 (Nav1.1) | block of cardiac Nav1.5 channel isoform (Nav1.5) | selectivity for INaL over INaP (INaL over INaP)
1 | FC(F)(F)Oc1ccc(-c2ccc3nnc(C(F)(F)F)n3c2)cc1 [GS967] | −0.37 ± 0.07 A/F | −56.7 ± 9.1 mC/F | 79.0% | 80.4 ± 2.2% | −15.4 ± 3.9 mC/F | −0.062 ± 0.01 A/F | 2.3% | < 500 ms | 110 ± 6 ms | 6.4 ± 0.9 AP and 5.3±0.8 AP | does not inhibit | does not inhibit | sensitive | strongly block | –
2 | CCCCc1oc2ccccc2c1C(=O)c1cc(I)c(OCCN(CC)CC)c(I)c1 [amiodarone] | – | – | – | – | – | – | – | – | – | – | – | – | – | – | 13 fold
3 | O=C(NCC1CCCCN1)c1cc(OCC(F)(F)F)ccc1OCC(F)(F)F (stereo not drawn) [flecainide] | – | – | – | – | – | – | – | – | – | – | – | – | – | – | 3 fold
4 | Cc1cccc(C)c1OCC(C)N (stereo not drawn) [mexiletine] | −0.375 ± 0.07 A/F | −65.2 ± 11.5 mC/F | 46.1% | 41.9 ± 3.7% | −37.0 ± 4.7 mC/F | −0.197 ± 0.026 A/F | 11.4% | < 700 ms | 456 ± 284 ms | 3.4 ± 0.4 AP | – | – | – | – | –
5 | C=C[C@H]1C[N@@]2CC[C@H]1C[C@@H]2[C@@H](O)c1ccnc2ccc(OC)cc12 [quinidine] | −0.377 ± 0.06 A/F | −61.2 ± 8.8 mC/F | 37.1% | 43.3 ± 2.2% | −42.9 ± 9.2 mC/F | −0.186 ± 0.02 A/F | – | – | – | – | – | – | – | – | –
6 | COc1ccccc1OCC(O)CN1CCN(CC(=O)Nc2c(C)cccc2C)CC1 (stereo not drawn) [ranolazine] | – | – | – | – | – | – | – | – | – | – | – | – | – | – | 38 fold
